The subject of experiment [1] is diabetic nephropathy-induced animals. Nature of the experiment: Diabetic nephropathy model in ZDF rats (Experimental Example 2). It is filed as in vivo, Zucker diabetic fatty (ZDF) rats. The note with it: 250 mg/kg oral. The text has this: When the blood glucose level is elevated, glucose in the blood partially binds to hemoglobin in red blood cells, producing glycosylated hemoglobin (termed HbAlc). When glycosylated hemoglobin is formed, the corresponding red blood cells will retain HbAlc until the red blood cells complete their lives to be destroyed. […] The HbAlc reflect a blood glucose value over a relatively long period of time, so the measurement of the HbAlc level may be a useful indicator of how well diabetes has been therapeutically controlled over the past several months.
An increase in the rate of excretion of albumin in the urine is the most preceding clinical finding in diabetic nephropathy. Therefore, an increased level of urine albumin is an indicator of renal or hepatic diseases.
8-week-old male Zucker diabetic fatty (ZDF) rats (Charles River Laboratory) were divided into four groups as given in Table 2 below: Vehicle, MB660 (250 mg/kg), Pair-fed, and Rosi (6 mg/kg). Animals were orally given test samples.
Diabetic nephropathy model animals were fed with a low-fat feed (11.9 kcal % fat, 5053, Labdiet). Animals with a blood glucose level of 300 mg/dl and a body weight (BW) of more than 300 g were selected and treated with test samples for 4 and 8 weeks, respectively (total 12 and 16 weeks old). In-vivo changes in glycosylated hemoglobin (HbAlc), urine albumin and urine protein (1,000× urine albumin/urine creatinine) associated with kidney diseases were observed. Albumin was measured using an immunoturbidimetric assay, and creatinine was measured using a Jaffe rate method.

Experiment [2] relates to acute renal failure-induced animals. The experiment in a line: Acute renal failure induced by ischaemia/reperfusion injury in rats (Experimental Example 1). It is filed as in vivo, Sprague-Dawley rats. The text has this: Creatine is non-enzymatically converted into creatinine that is a waste product of muscle energy metabolism. Creatinine is a waste by-product and is therefore filtered by the kidney, but not reabsorbed. Since the muscle mass is generally maintained at a constant level and is less susceptible to other organs except for the kidney, a serum creatinine level is a good marker of the glomerular filtration rate. A higher creatinine concentration reflects more significant impairment of renal function. For example, a two-fold increase of the creatinine level represents a 50% decrease of the glomerular filtration rate.
Accumulation of toxic ammonia in the body is prevented in a manner that ammonia is produced by deamination of amino acids during a protein metabolic process and is then converted into urea in the liver. When excretory function of the kidney is compromised, the blood urea nitrogen level is elevated. Therefore, measurement of BUN is an important indicator to examine whether the kidney is normally functional or not. When the BUN level is elevated over a normal value, the subject is suspected to have acute nephritis, chronic nephritis, prostate hyperplasia or the like. When the BUN level is dropped below a normal value, the subject is suspected to have diabetes insipidus, muscular dystrophy or the like.
Among compounds of Formula 1, effects of 7,8-dihydro-2,2-dimethyl-2H-naphtho(2,3-b)dihydropyran-7,8-dione (hereinafter, referred to as “compound of Example 1”) on acute renal failure were examined. For this purpose, 6-week-old male Sprague-Dawley rats, weighing 200 to 220 g (Japan SLC, Inc., Japan) were divided into two groups as given in Table 1 below: a vehicle-treated control group and a group received the compound of Example 1 (200 mg/kg). Animals were given test samples by the oral route. […]
Following the IR induction, 0.2 mL of serum was sampled from each animal on +1 day, +3 day and +5 day, respectively. Creatinine and BUN (blood urea nitrogen) levels were measured with an automatic biochemical analyzer (HITACHI, 7020).

As to `CC1(C)CCC2=C(O1)c1ccccc1C(=O)C2=O` [Example 1, 7,8-dihydro-2,2-dimethyl-2H-naphtho(2,3-b)dihydropyran-7,8-dione], the “glycosylated hemoglobin (HbAlc)” value in experiment [1] (treated 4 and 8 weeks (FIG. 3)) is on record as “significantly low”. The urine albumin level result in experiment [1] (treated 4 and 8 weeks, compared with Rosiglitazone 6 mg/kg group (FIG. 5)) is given as “lower”. Moreover, in experiment [1] (treated 4 and 8 weeks, compared with Rosiglitazone 6 mg/kg group (FIG. 6)), the “daily urine protein level (1000× urine albumin/urine creatinine)” value is recorded as “lower”. For the same compound, the left kidney weight entry in experiment [1] (treated 4 and 8 weeks, vs diabetic nephropathy-induced control group (FIG. 4)) is listed as “significant decrease”. In experiment [2] (200 mg/kg oral for two weeks before IR induction, serum on +1, +3, +5 day, vs control group, most prominent after 3 days of reperfusion (FIG. 1)), the serum creatinine level result is “significantly decreased”. Further, the “serum BUN (blood urea nitrogen) level” value in experiment [2] (200 mg/kg oral for two weeks before IR induction, serum on +1, +3, +5 day, vs control group, most remarkable after 3 days of reperfusion (FIG. 2)) is “significant reduction”. The glomerular filtration rate result in experiment [2] (200 mg/kg oral, inferred from serum creatinine and BUN results) is listed as “elevation”.

The values are drawn from patent US20130302422A1, “PHARMACEUTICAL COMPOSITION FOR TREATMENT AND PREVENTION OF KIDNEY DISEASES” (KT & G CORPORATION, priority 2007, published 2013).
